The target in data set [1] is T1, ALDH1A1 (Homo sapiens, UniProt P00352).
T1 sequence (P00352 1-501): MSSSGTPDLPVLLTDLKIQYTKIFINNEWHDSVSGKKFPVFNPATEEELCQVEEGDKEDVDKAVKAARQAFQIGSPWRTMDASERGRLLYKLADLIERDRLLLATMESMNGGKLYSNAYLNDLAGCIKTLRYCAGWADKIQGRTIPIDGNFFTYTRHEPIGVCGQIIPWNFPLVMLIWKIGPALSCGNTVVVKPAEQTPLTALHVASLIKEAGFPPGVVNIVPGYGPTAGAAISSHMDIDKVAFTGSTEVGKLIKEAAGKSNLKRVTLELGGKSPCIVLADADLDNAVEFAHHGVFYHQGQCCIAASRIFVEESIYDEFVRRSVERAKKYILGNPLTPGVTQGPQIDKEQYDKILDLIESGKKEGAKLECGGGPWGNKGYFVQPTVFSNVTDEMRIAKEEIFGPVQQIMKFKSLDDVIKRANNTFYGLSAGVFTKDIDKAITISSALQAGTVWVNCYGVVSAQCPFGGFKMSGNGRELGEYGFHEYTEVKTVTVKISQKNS
As to the kind of experiment: ALDH enzymatic assay, recombinant ALDH1A1. In kind it is biochemical. The settings on record: 5 μg/ml recombinant enzyme, 10 mM acetaldehyde, 20 μM Alda-341. How it is done:
ALDH enzymatic assay: ALDH1A1, ALDH1A2, 2, 3A1, 3A2, 4A1, 5A1, 7A1 were measured as previously described using 5 μg/ml of recombinant protein (Chen, C. H., Cruz, L. A., and Mochly-Rosen, D. (2015) Pharmacological recruitment of aldehyde dehydrogenase 3A1 (ALDH3A1) to assist ALDH2 in acetaldehyde and ethanol metabolism in vivo. Proceedings of the National Academy of Sciences of the United States of America 112, 3074-3079). […] Assays were conducted in 50 mM NaPPi buffer (pH 7.4) in the presence of 2.5 mM NAD^+ and 10 mM substrate and measured in triplicate at 25° C. Dose response curve fits and EC50's were calculated using GraphPad Prism 7 software.

Data set [2] relates to mouse model of radiation-induced hyposalivation. Put plainly: Mouse model of radiation-induced hyposalivation. Format: in vivo. The source says: In one experiment, mice were irradiated with a single dose of 15 Gy and in a second experiment with 6 Gy/d for 5 d for a total of 30 Gy. […] Starting 8 weeks after radiation, the control and treatment groups were further segmented into four groups.
On day 5 of the 30 Gy radiation dose, SMG were removed, fixed, and stained for cleaved caspase 3 to determine the extent of apoptosis (FIG. 4E).
Saliva collection: Female C57/BL-6 mice, 8-10 weeks old, were ordered from Jackson Labs. […] 15 Gy single dose or 30 Gy fractionated over 5 d (6 Gy/d) were delivered to the SMG with the rest of the body lead shielded. Stimulated saliva was measured as described in, Lombaert, I. M., Brunsting, J. F., Wierenga, P. K., Faber, H., Stokman, M. A., Kok, T., Visser, W. H., Kampinga, H. H., de Haan, G., and Coppes, R. P. (2008) Rescue of salivary gland function after stem cell transplantation in irradiated glands. PloS one 3, e2063. Mice were anesthetized with a ketamine (80 mg/kg) and xylazine (16 mg/kg) mixture delivered by intraperitoneal injection and subcutaneously injected with 2 mg/kg pilocarpine. Saliva was collected for 15 minutes. Saliva volume was calculated by assuming […] and was normalized to the mouse body weight by dividing the total collected saliva volume by the mass of the mouse (kg).
Periodic acid schiff staining and acinar quantification: SMG were removed from mice, fixed in 10% formalin for 24 h, and paraffin-embedded. 10 images per group were taken at random at 30× magnification using a Leica DM6000 B microscope. Acinar regions were quantified using RT_Image software (Graves, E. E., Quon, A., and Loo, B. W., Jr. (2007) RT_Image: an open-source tool for investigating PET in radiation oncology. Technology in cancer research & treatment 6, 111-121). Images were separated into red, green, and blue color channels, blurred using a 20 pixel box filter, and segmented using an intensity contour of 110 with a minimum area of 100 um^2. Acinar area was calculated as a percentage of acinar area relative to the area of the microscopy field.
Cleaved caspase 3 staining: SMG were removed from mice, fixed in 10% formalin for 24 h, and paraffin-embedded. Sections were stained with Caspase 3 rabbit antibody (Cell Signaling, 9664), 1:200 dilution, and DAPI. Three random images using red and blue filters were taken at 100× magnification with a Leica DM6000 B microscope from each gland (6-8 glands/group) and quantified by counting cleaved caspase-3 positive (red) cells per field.
RNA-sequencing: Samples were extracted using Qiagen miRNeasy Kit (217084). Extracted samples were assessed for quality using Agilent Pico-RNA bio-analyzer chip (5067-1513). The Smarter Ultra Low Input RNA kit (Clontech, 634848) was used to generate cDNA from total RNA. Amplified cDNA was purified using SPRI Ampure Beads from Beckman Coulter, and quality and quantity were measured using a High Sensitivity DNA chip on an Agilent 2100 Bioanalyzer. cDNA was sheared to an average length of 300 BP using a Covaris S2, and libraries were generated following the Clontech Low Input Library Prep kit (634947). Indexed libraries were pooled and quantitated for sequencing. Sequencing data was generated on an Illumina HiSeq 4000. The processed RNAseq reads were imported into BRB-ArrayTools, an integrated package for the visualization and statistical analysis of gene expression data developed by Dr. Richard Simon and BRB-ArrayTools Development Team. The imported expression values were log2-transformed and subjected to quantile normalization by Robust Multi-chip Average (RMA). Genes that show differential expression between those untreated and irradiated (univariate p-value <0.01) were selected. To identify functional networks and pathways enriched in these significant genes, these genes were analyzed using MetaCore™. For heatmap generation the Clustering function of ArrayTools was used, with experimental samples in fixed grouping and order, and genes ordered by hierarchical clustering.

The subject of data set [3] is SAS (human papillomavirus [HPV]-negative) head and neck squamous cell carcinoma cell line. As to the kind of experiment: Xenograft study, SAS. The note with it: Alda-341 from one week ahead of irradiation, during and post; 30 Gy over 5 fractions. In kind it is in vivo, SCID mice. The protocol:
Xenograft study: Six-week old SCID mice were purchased from the Jackson laboratory and five mice per group were used. SCC90 and SAS cells (2×10^6 cells/injection) were implanted into both flanks of each mouse. Alda-341 treated one week ahead of irradiation and continued during and post radiation. Total 30 Gy over 5 fractions in a week was delivered to the tumor with the rest of the body shielded. Tumor size was measured every 1-2 days. Tumor volume was calculated by the formula (π×length×width×height)/6.

Where [4] appears, read: EpCAM+ cells isolated from SMG 2 weeks after 30 Gy.

Take `C=C(C)[C@H]1CC=C(C)CC1` [Alda-341, D-limonene]: the “catalytic activity of ALDH1A1” value in data set [1] was “did not increase”. In addition, the “saliva production after radiation” value in data set [2] (10% Alda-341 in chow from 1 w prior to radiation and continuously after, single 15 Gy or 30 Gy (6 Gy/d for 5 d)) is “retained near baseline saliva production levels”. Besides, the “saliva production, Alda-341 stopped” value in data set [2] (Alda-341 from 24 h after radiation, stopped 8 weeks after radiation) is recorded as “rapid decline in saliva production”. Also, the “saliva levels, continuous Alda-341” value in data set [2] (Alda-341 starting 24 h after the final dose of radiation, continuous, 20 weeks) was “sustained significantly higher saliva levels over 20 weeks”. In addition, the “saliva production, Alda-341 begun late” value in data set [2] (Alda-341 treatment begun 8 weeks after radiation) is on record as “did not show significant improvement in saliva production”. Moreover, in data set [2] (setting [4]), the “apoptotic-related gene expression (RNA-sequencing)” value was “a decrease in apoptotic-related gene expression”, the “glutathione metabolism (RNA-sequencing)” value was “increased glutathione metabolism” and the “immune response (RNA-sequencing)” value was “decreased immune response”. For the same compound, in data set [2] (after 20 weeks, continuous Alda-341), the “more acinar cell preservation (PAS staining) vs group that never received Alda-341” value is about 70%. Further, the “improvement in sphere-forming ability of dissociated SMG vs no treatment” value in data set [2] (continuous Alda-341 after radiation) was about 30 fold. In addition, in data set [2] (day 5 of the 30 Gy radiation dose, Alda-341 before radiation), the “number of apoptotic cells (cleaved caspase 3 staining)” value was “reduced the number of apoptotic cells to near non-irradiated levels”. Moreover, the “preservation of acinar area” value in data set [2] (eight weeks after 30 Gy, Alda-341 from 1 w prior to radiation) is on record as 90%. Also, the “tumor growth and protection of tumors from radiation, SAS xenograft” value in data set [3] was “did not increase tumor growth or protect tumors from radiation”.

The values are drawn from patent US20190060249A1 (priority 2017, published 2019).
